Consider two molecules from patent US12252457B2, “Compositions and methods for reducing tactile dysfunction, anxiety, and social impairment” (President and Fellows of Harvard College, priority 2018, dated 2025).

For data set [1], the target named is T1, Transporter, GABA (Rattus norvegicus, UniProt P23978).
T1 construct: tissue Eurofins Panlabs 226400; host or cells: rat brain membranes (own knowledge of the vendor's assay and of the cited Shank et al. 1990 method)
Kind of data set: GABA transporter radioligand binding assay (Cat # 226400). To be noted: reference compound, batch 424211; read-out: Concurrent IC50. How it is done: The activity of compound Compound 5 was evaluated in Radioligand Binding assays. Methods employed herein have been adapted from the scientific literature to maximize reliability and reproducibility. Reference standards were run as an integral part of each assay to ensure the validity of the results obtained. Where presented, IC50 values were determined by a non-linear, least squares regression analysis using MathIQ™ (ID Business Solutions Ltd., UK). Where inhibition constants (K) are presented, the Ki values were calculated using the equation of Cheng and Prusoff (Cheng, Y., Prusoff, W. H., Biochem. Pharmacol. 22:3099-3108, 1973) using the observed IC50 of the tested compound, the concentration of radioligand employed in the assay, and the historical values for the KD of the ligand (obtained experimentally at Eurofins Panlabs, Inc.). Where presented, the Hill coefficient (nH), defining the slope of the competitive binding curve, was calculated using MathIQ™. […] Where IC50, Ki and/or nH data are presented without Standard Error of the Mean (SEM), data are insufficient to be quantitative.
Biochemical assay results are presented as the percent inhibition of specific binding or activity. All other results are expressed in terms of the quantitation method of that assay. For primary assays, only the lowest concentration with a significant response, judged by the criteria of the assay, is shown in this summary. […] Unless otherwise requested, primary screening in duplicate with quantitative data (e.g., IC50±SEM, Ki ±SEM and nH) are shown where applicable for individual requested assays.
J Neurochem. 54:2007-2015.

Data set [2] concerns the target T1, Transporter, GABA. The note with it: reference compound, historical value; cited from earlier work.
The test system of data set [3] is genetic and environmental mouse models of ASD. Kind of data set: Tactile PPI, air puff response and startle amplitude after acute midazolam or isoguvacine in ASD mouse models. To be noted: 2 mg/kg i.p. The class given is in vivo. The protocol: FIGS. 19A-19N show acute administration of the peripherally-restricted GABAA receptor agonist isoguvacine improves tactile hypersensitivity in five genetic and one environmental model of ASD. […] Two-way ANOVA with post-hoc Sidak's test, *, p<0.05. FIG. 19B: Response to a light air puff stimulus alone in mice following i.p. administration of either saline or 2 mg/kg midazolam treatment. Responses are expressed as percent of startle response to a 125 dB noise. Two-way ANOVA with post-hoc Sidak's test, *, p<0.05. FIG. 19C: Magnitude of startle response to a 125 dB noise in mice following i.p. administration of either saline or 2 mg/kg midazolam treatment. Responses are expressed as percent of startle response to a 125 dB noise. Two-way ANOVA with post-hoc Sidak's test, *, p<0.05. FIG. 19D: Magnitude of startle response to a 125 dB noise in mice following i.p. administration of saline, midazolam (2 mg/kg) or a peripherally-restricted GABAA receptor agonist, isoguvacine (2 mg/kg). Responses are expressed as percent of startle response to a 125 dB noise. Two-way ANOVA with post-hoc Sidak's test, *, p<0.05. FIGS. 19E-19G: Liquid chromatography mass spectrometry (LC-MS) quantified isoguvacine concentrations in cerebrospinal fluid (CSF) (FIG. 19E), blood (FIG. 19F) or liver (FIG. 19G) samples of mice treated with: i.p. saline, i.p. isoguvacine (“Iso.”, 20 mg/kg, samples collected 1, 3 or 24 hours post-injection), intracerebral injection isoguvacine (20 mg/kg, 1 hour post-injection), i.p. diazepam (“DZ”, 20 mg/kg, 1 hour post injection) or intracerebral injection diazepam (20 mg/kg, 1 hour post injection). FIG. 19H: Normalized peak chloride flux through α1β3γ2- and α2β3γ2-containing GABAA receptors in response to isoguvacine application. […] FIGS. 19I-19K: GABAA receptor subunit RNA expression levels across peripheral somatosensory neuron subtypes, for the alpha (FIG. 19I), beta (FIG. 19J), and gamma (FIG. 19K) subunit types. […] Two-way ANOVA with post-hoc Sidak's test, *, p<0.05. FIG. 19M: Response to a light air puff stimulus alone in mice following i.p. administration of either saline or 2 mg/kg isoguvacine treatment. Responses are expressed as percent of startle response to a 125 dB noise. Two-way ANOVA with post-hoc Sidak's test, *, p<0.05. FIG. 19N: Magnitude of startle response to a 125 dB noise in mice following i.p. administration of either saline or 2 mg/kg isoguvacine treatment. Responses are expressed as percent of startle response to a 125 dB noise. Two-way ANOVA with post-hoc Sidak's test, *, p<0.05.
Results of the GABAA receptor restoration experiments raised the possibility that pharmacological treatment with a GABAA receptor agonist may improve tactile reactivity in Mecp2 mutant mice. It was therefore tested whether benzodiazepines, which are positive allosteric modulators (PAMs) of GABAA receptors, would attenuate hairy skin hypersensitivity in Mecp2 mutant mice. Advillin^Cre; Mecp2^f/y mutant mice and their control littermates were administered either vehicle alone or the benzodiazepine midazolam (2 mg/kg, i.p.) in a pseudorandomized manner, and then subjected to tactile PPI. On the following day, treatment regimens were reversed, and tactile PPI was repeated.
While traditional blood-brain barrier (BBB) penetrating benzodiazepines and non-benzodiazepine GABAA receptor PAMs are useful for treating some ASD-related symptoms in patients, including acute anxiety, significant adverse effects including sedation and addictive potential are common (Gudex, 1991). Furthermore, long-term benzodiazepine use is linked to cognitive impairment across multiple domains, including short-term verbal memory and attention (Golombok et al., 1988; Tata et al., 1994), leading to general reluctance within the medical community for prescribing benzodiazepines and other GABAA receptor PAMs to young children (Howes et al., 2018). […]

Like-named read-outs stand apart in the source and are kept apart here.

A word on the IC50: it is the concentration that gives 50% inhibition. One may read the Ki as the equilibrium dissociation constant of an inhibitor or competing ligand from its target.

For the molecule `O=C(O)C1=CCCN(CCON=C(c2ccccc2)c2ccccc2)C1` [NO-711], the IC50 at Transporter, GABA [1] turned out to be 0.17 µM. In addition, at Transporter, GABA [2], the “Historical nH” value was 1.10, the half-maximal inhibitory concentration (IC50) was 0.2 µM and the Ki is 0.2 µM.
Take `Cc1ncc2n1-c1ccc(Cl)cc1C(c1ccccc1F)=NC2` [midazolam]: the “tactile sensitivity (tactile PPI)” value in data set [3] (Advillin^Cre, Mecp2^f/y mutants and controls) was “significantly attenuated tactile sensitivity”. Also, in data set [3] (all mice, 125 dB noise), the “reduction in startle amplitude (sedation)” value is listed as around 50%.
